Key:
[1] = test system: Dnmt1; assay: Dnmt1 expression in HSCs (qRT-PCR, Western blot); type: cell-based, mouse
Procedure: Quantification was performed using ImageJ software.
Total RNA was isolated using the mirVana miRNA isolation kit (Applied Biosystems). cDNA was synthesized using the QuantiMir RT Kit small RNA quantification system (SBI). qRT-PCR was performed as described previously. Mouse U6 was used as an endogenous control. The let-7d-3p mimic and inhibitor were purchased from Life Technologies (catalog numbers 4464066 and 4464084, respectively).

[2] = test system: HSCs from db/db mice; assay: Intracellular ROS (DCF) in HSCs of db/db mice given NAC; type: in vivo, mouse; details: NAC 150 mg/kg/day via drinking water for 8 weeks, FIG. 6A
Description: 8-12 weeks old male C57BL/6J wild type (WT) and […] (db/db) mice were used in the studies. All mice were purchased from Jackson Laboratories and were maintained in mouse barrier facilities. Care and use of mice was in accordance with NIH guidelines and the Institutional Animal Care and Use Committee of the University of Massachusetts Medical School approved protocols. db/db and WT mice were fed standard chow diet (5.4 g/100 g diet, 0% cholesterol) and HFD mice were generated by feeding C57BL/6J mice a high fat diet (60% fat calories; Research Diet, New Brunswick, N.J.). N-acetylcysteine (NAC) was given for 8 weeks (150 mg/kg/day via drinking water. Whole bone marrow cells were flushed out from femurs and tibialis. Bone marrow cells were stained with antibodies for the identification of HSCs (c-Kit^+Scal^+lineage^-CD90.1^lo/-). The antibodies used were: c-Kit (1:50, eBioscience 12-1171, clone: 2B8), Sca-1 (1:50, eBioscience 11-5981, clone: D7), CD90.1 (1:50, eBioscience 45-0900, clone:[…]) and a lineage cocktail antibody (1:50, BD Bioscience 558074). As for the gating strategy for flow cytometry, we first gated on single, viable cells and eliminated any debris, dead cells and clumps or doublets. Next, gates were drawn on the c-Kitpositive/Scal-positive/lineage-negative/CD90.1^low-negative population for HSC sorting. […]

[3] = test system: Dnmt3a and DNMT3b; assay: Dnmt3a and Dnmt3b expression in db/db HSCs (qRT-PCR, Western blot); details: FIGS. 7E-F
[4] = test system: bone marrow monocytes of db/db mice; assay: CD115+CD11b+ monocyte concentration in bone marrow by flow cytometry; type: in vivo, mouse; details: NAC 150 mg/kg/day via drinking water for 8 weeks, FIG. 6C
Description: 8-12 weeks old male C57BL/6J wild type (WT) and […] (db/db) mice were used in the studies. All mice were purchased from Jackson Laboratories and were maintained in mouse barrier facilities. Care and use of mice was in accordance with NIH guidelines and the Institutional Animal Care and Use Committee of the University of Massachusetts Medical School approved protocols. db/db and WT mice were fed standard chow diet (5.4 g/100 g diet, 0% cholesterol) and HFD mice were generated by feeding C57BL/6J mice a high fat diet (60% fat calories; Research Diet, New Brunswick, N.J.). N-acetylcysteine (NAC) was given for 8 weeks (150 mg/kg/day via drinking water.

[5] = test system: Dnmt1 M1 and Dnmt1 M2 (mutated let-7d-3p binding sites in Dnmt1 3′ UTR); assay: Mutant Dnmt1 3' UTR luciferase reporter assay in HEK293T cells; type: cell-based, mouse; details: FIG. 8C
Procedure: (§1) HEK293T cells grown in 96-well plates were transfected with pmirGLO containing the Dnmt1 3′ UTR region that includes the let-7d-3p binding sites. The cells were co-transfected with let-7d-3p using Lipofectamine (Invitrogen). The Firefly and Renilla luciferase activities in the cell lysates were assayed with a Dual-Luciferase Reporter Assay System (Promega) at 48 h post-transfection. To generate the mutant variants, point mutations in the binding sites of let-7d-3p in the 3′-UTR region of Dnmt1 were introduced by PCR according to the site-directed mutagenesis protocol from Agilent. The two mutants that were generated are labeled “Dnmt1 M1” and “Dnmt1 M2”. The binding sequence of let-7d-3p in mouse Dnmt1 3′UTR is: […]

[6] = test system: mouse Dnmt1 3′ UTR region; assay: Dnmt1 3' UTR luciferase reporter assay in HEK293T cells; type: cell-based; details: 48 h post-transfection, FIG. 8C
Procedure: as §1

[7] = test system: H3K9me2 and H3K9me3 at Klf4, PU.1 and Notch1 promoters; assay: ChIP-PCR of H3K9 histone methylation at Notch1, PU.1 and Klf4; type: cell-based, mouse; details: db/db HSCs; FIG. 17B and FIG. 18
Procedure: 1×10^6 HSCs were sorted and cross-linked with 1% formaldehyde at room temperature for 10 min, and the reaction was stopped by adding Glycine to a final concentration of 0.125M and incubating at room temperature for 5 min. Cross-linked cells were lysed in lysis buffer and sonicated to 200-500 bp fragments (Bioruptor, Diagenode). The sonicated chromatin was centrifuged at 4° C. for 5 min. The cross-linked DNA was immunoprecipitated with H3K9me3, H3K9me2 or H3K9Ac antibodies (Millipore, USA) overnight at 4° C. with rotation, DNA-Antibody complexes were bound to ChIP beads, pulled down, washed and then eluted from the beads. Following reversal of cross-linkage, purified DNA was used for quantitative PCR using ChIP PCR primers purchased from IDT (MA, USA). Immunoprecipitation efficiency was calculated by normalizing sample CT values against control IgG values and calculating ratios of sample CT values relative to input values.

[8] = test system: Notch1, PU.1 and Klf4 genes; assay: DNA methylation of Notch1, PU.1 and Klf4 by pyrosequencing; type: cell-based, mouse; details: db/db HSCs; FIG. 14A, FIG. 15, FIG. 16
Procedure: Genomic DNA was isolated by traditional phenol-chloroform extraction and isopropanol precipitation. DNA concentration was measured using a Nano Drop spectrophotometer. Around 500 ng genomic DNA were bisulfite converted by EZ DNA methylation-Gold kit following the manufacturer's instructions (Zymo Research). PCR amplification was performed using 2×HiFi Hotstart Uracil+ready mix PCR (Kapa Biosystems). PCR and pyrosequencing primer sets with one biotin-labeled primer were used to amplify the bisulfite converted DNA. Primers were designed using PyroMark Assay Design software version 2.0.1.15 (Qiagen). The size of the amplicons was 200 bp or less. Briefly, 5 μl master mix, […] of each primer, 20 ng genomic DNA and ultra-pure water to a final volume of 10 μl were mixed for each reaction and run at thermal cycling conditions: 95° C. for 3 min and then 50 cycles: 20 sec at 98° C.; 15 sec at the optimized primer-specific annealing temperature; 15 sec at 72° C. and a final extension for 1 min at 72° C. […] PyroGold reagents were used for the pyrosequencing reaction and the signal was analyzed using the PSQ 96MA system (Biotage, Uppsala, Sweden). Target CGs were evaluated by instrument software (PSQ96MA 2.1), which converts the pyrograms to numerical values for peak heights and calculates the methylation at each base as a C/T ratio.

Row | Compound | expression of DNMT1 in db/db HSCs ([1]; db/db HSCs, compared with WT HSCs, FIGS. 7E-F) | oxidant stress in HSCs (DCF positive cells) [2] | mRNA or protein levels of Dnmt3a and DNMT3b [3] | monocyte concentration in bone marrow [4] | Dnmt1 expression in db/db HSCs ([1]; db/db HSCs transfected, FIGS. 8F-G) | luciferase activity, let-7d-3p binding sites in Dnmt1 3′ UTR mutated [5] | luciferase activity, intact 3′ UTR construct [6] | histone methylation levels (H3K9me2, H3K9me3) [7] | methylation of Notch1, PU.1, Klf4 [8]
1 | CC(=O)N[C@@H](CS)C(=O)O [N-acetylcysteine] | restored | reversed | did not change | restored | – | – | – | – | –
2 | let-7d-3p mimic: let-7d-3p mimic purchased from Life Technologies (catalog number 4464066); microRNA that binds the Dnmt1 3′ UTR (guide CUAUACGACCUGCUGCCUUUCU; chemistry not given here) | – | – | – | – | decreased | didn't affect | significantly repressed | decreased | decreased

Reference: US11814623B2, “Methods of treating a wound using epigenetic regulation” (University of Massachusetts, priority 2018, dated 2023)
